In patent US7220864B2, “Dihydronaphthalene derivative compounds and agent comprising the derivative as active ingredient” (Ono Pharmaceutical Co., Ltd., priority 2000, dated 2007):

Columns and labels:
human PPAR γ = molecular target: T1, human PPAR γ (Homo sapiens, UniProt P37231); test: Luciferase assay using human PPAR γ (PPAR γ agonistic activity); type: cell-based; settings: compound 10 μM; CV-1 cells with Gal4-human PPAR γ LBD chimera and luciferase reporter; luciferase activity of troglitazone (10 μM) defined as 1.0
T1 construct: expressed in transfected cells; host or cells: CV-1 cells
T1 sequence (P37231 204-505): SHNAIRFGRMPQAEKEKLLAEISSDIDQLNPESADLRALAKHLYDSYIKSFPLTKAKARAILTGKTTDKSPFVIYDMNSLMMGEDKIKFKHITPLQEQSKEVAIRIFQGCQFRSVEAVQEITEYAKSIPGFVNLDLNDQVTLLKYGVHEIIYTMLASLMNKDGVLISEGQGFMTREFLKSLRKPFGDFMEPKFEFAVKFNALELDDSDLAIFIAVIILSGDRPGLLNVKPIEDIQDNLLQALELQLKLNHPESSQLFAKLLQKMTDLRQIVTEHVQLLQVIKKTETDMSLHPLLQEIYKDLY

human PPAR α = molecular target: T2, human PPAR α (Homo sapiens, UniProt Q07869); test: Luciferase assay using human PPAR α (PPAR α agonistic activity); type: cell-based; settings: compound 10 μM; CV-1 cells with Gal4-human PPAR α LBD chimera and luciferase reporter; luciferase activity of carbacyclin (10 μM) defined as 1.0
T2 construct: expressed in transfected cells; host or cells: CV-1 cells
T2 sequence (Q07869 167-468): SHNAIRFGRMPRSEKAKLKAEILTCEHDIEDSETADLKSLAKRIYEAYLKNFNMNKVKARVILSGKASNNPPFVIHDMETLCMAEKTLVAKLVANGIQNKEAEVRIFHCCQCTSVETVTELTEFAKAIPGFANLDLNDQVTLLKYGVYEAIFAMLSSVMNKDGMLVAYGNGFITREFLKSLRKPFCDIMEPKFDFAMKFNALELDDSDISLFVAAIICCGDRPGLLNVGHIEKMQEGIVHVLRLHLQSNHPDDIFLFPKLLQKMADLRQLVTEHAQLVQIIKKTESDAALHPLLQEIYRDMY

## O=C(O)CCCCC1=CCCc2c(OCc3ccc4ccccc4n3)cccc21 [comprative compound]
Human PPAR γ
  Relative Activity to a positive control compound (troglitazone = 1): 0.004
Human PPAR α
  Relative Activity to a positive control compound (carbacyclin = 1): 0.01
